Where a name gives a salt, the structure may show the parent alone. Read-outs that look alike come from different tables or passages of the source. Where a SMILES comes first, the peptide text is derived from it. Where no end group is shown, it is not given here.
How the values were obtained:
[1] = In vitro skin permeation test, Franz-type diffusion cells
Protocol: The transdermal delivery of GHK and RGD-GHK was measured through the porcine skin. Permeation experiment was carried out for 24 h at 37 °C with Franz-type diffusion cells. Peptides in collected receptor solutions and skin retention were analyzed by HPLC. […] To further test whether the incorporation of a targeting motif could enhance the binding of chimeric peptides in vivo, we used smearing FITC-peptides at the mouse back for 24 h and tracked the peptide location of the skin slices by fluorescent microscopy.

[2] = tested on: HaCaT; test: Cell viability, CCK-8 assay; details: 2 h incubation
Protocol: (§2) Cells (1 × 10^4 cells per well) were seeded in a 96-well plate to reach approximately 80% confluence. Wells filled with DMEM alone served as positive controls (PCs). The culture medium of sample groups was replaced either by 100 μL of H2O2 or naked/FITC-labeled peptide solutions at different concentrations for a certain time of incubation, and non-treatment wells acted as negative controls (NCs). Then, the plate solutions were substituted with 100 μL of 10% CCK-8 solution per well and incubated for another 2 h, followed by an absorbance reading taken at 450 nm. The cell survival was determined according to the following formula: cell viability (%) = (ODsample − ODpc)/(ODnc − ODpc) × 100%.

[3] = tested on: HaCaT cells; test: Release of lactate dehydrogenase after H2O2 damage; type: cell-based, human; details: 800 μM H2O2 for 2 h, then fresh medium 18 h, no peptide
Protocol: Lactate dehydrogenase (LDH) activity of the cellular culture was evaluated using an LDH release assay kit (Beyotime). Cells (1 × 10^5 cells per well) were cultured in a 24-well plate for 24 h to reach approximately 80% confluence and then treated either with peptide solution or peptide-free DMEM (positive control, PC). After 4 h incubation, both the peptide solution and peptide-free culture medium were replaced with 250 μL of 800 µM H2O2 and incubated for another 2 h. Then, the cells were incubated with 500 µL of the fresh medium instead of H2O2 for 18 h. Then, 200 µL of the supernatant alone was harvested and mixed with 20 µL of the releasing agent, while the PC medium together with cells was incubated with the equivalent releasing agent. A measure of 200 μL of DMEM alone mixed with 20 µL of the releasing agent was used as a negative control (NC). Then, the solution was incubated at 37°C and 5% CO2 for 1 h and centrifuged at 1,000 rpm for 4 min. A measure of 40 μL suspension per well was pipetted into a 96-well plate and mixed with 20 µL of fresh LDH working solution that was prepared according to the manufacturer’s protocol. The plate was briefly vortexed in the dark for 30 min, and the OD values were measured at 490 nm wavelength. LDH release (%) was expressed via the following equation: LDH (%) = (ODsample − ODnc)/(ODpc − ODnc) × 100%.

[4] = tested on: HaCaT; test: Cell apoptosis assay (Annexin V-FITC/PI, FCM); type: cell-based, human; details: with or without peptide 200 μg/mL 4 h, 800 μM H2O2 2 h, medium 18 h, Figure 4E/G
Protocol: The percentage of early-stage apoptosis and late-stage apoptosis and necrosis of cells induced by H2O2, with or without peptide addition, were determined using an Annexin V-FITC/PI double-staining assay kit (Beyotime). Cells (1×10^5 cells per well) were seeded in a 24-well plate, pretreated with or without peptide solutions, and incubated for 4 h. The peptide solution or culture medium was replaced with 800 μM of H2O2 solution and was incubated for 2 h at 37°C. Then, the cells were incubated only with the complete medium for another 18 h. Non-treated groups were taken as controls. Suspended medium (200 µL) and trypsin-disassociated cells were collected and centrifuged at 1,000 rpm for 4 min. The precipitate was resuspended in binding buffer (195 µL) plus Annexin V-FITC (5 µL) and incubated for 5 min, followed by 10-min staining of 10 µL propidium iodide (PI). The non-staining sample was used as a reference. After a gentle mix at room temperature and a dark environment, the ratio of cell death was detected via flow cytometry (FCM). […] The free dye was inclined to bind to DNA in the nucleus and emitted strong green fluorescence when DEVD dye was broken down by caspase-3. The fluorescence intensity was measured by FCM, which represented the activity of caspase-3.

[5] = tested on: HFF-1; test: Cell viability, CCK-8 assay; details: HFF-1, 2 h incubation
Protocol: as §2

[6] = biological target: T1, Human neutrophil elastase (Homo sapiens, UniProt P08246); test: Assay of elastase activity (pNA substrate, OD 405 nm); type: biochemical; details: 2.5 U/mL elastase, 37°C, 2 h time point; for elastase inhibition rate: peptide 200 μg/mL, 5 min preheating
T1 construct: purchased Yuanye Bio Co. (Shanghai)
T1 sequence (P08246 30-267): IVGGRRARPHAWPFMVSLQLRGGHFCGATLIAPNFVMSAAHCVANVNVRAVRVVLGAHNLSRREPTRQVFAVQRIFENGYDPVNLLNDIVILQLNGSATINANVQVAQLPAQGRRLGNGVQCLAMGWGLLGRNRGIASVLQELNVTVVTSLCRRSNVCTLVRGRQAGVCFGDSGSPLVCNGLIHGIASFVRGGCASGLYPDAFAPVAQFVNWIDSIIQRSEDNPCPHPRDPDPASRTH
Protocol: N-Methoxysuccinyl-ala-ala-pro-val-p-nitroanilide (CAS: 70967-90-7) was bought from Sigma Chemical Co. (St. Louis, United States). Sivelestat sodium salt hydrate (S7198, CAS: 201677-61-4) was purchased from Meilun Co. (Dalian). Human neutrophil elastase (30 U/mg) was obtained from Yuanye Bio Co. (Shanghai). p-Nitroanilide (pNA, CAS: […]) was bought from Aladdin Co. (Shanghai). All other chemicals were of analytical grade and purchased from Sigma.
The stock solution (0.1 mg/mL pNA) was prepared in 10% DMSO. The standard curve of pNA was made using the different volumes of stock (200, 150, 100, 50, 30, 20, 10, 5, and 1 μL) mixed with 10% DMSO to reach a final volume of 200 μL. The optical density (OD) of each sample was measured at a wavelength of 405 nm.
Substrates were dissolved in 10% DMSO to form a final concentration of 100 μM. A measure of 100 μL of different concentrations (10, 5, 2.5, 1.25, 0.625, and 0.3125 U/mL) of elastase solution in 10% DMSO was preheated at 37°C for 5 min, and 100 μL of substrate solution was added to start the reaction at 37°C. The absorbance at 405 nm was monitored at 5-min intervals up to a recording time of 2 h at 37°C. A measure of 200 μL of 10% DMSO was taken as a blank control.
A measure of 90 μL of 2.5 U/mL elastase solution together with 10 μL of the sample at a certain concentration was preheated at 37°C for 5 min, and then 100 μL of the substrate was added to initiate a 120 min-reaction at 37°C. The OD was read at 405 nm. A measure of 200 μL of 10% DMSO was used as a blank control; 10 μL of Sivelestat solution at 10 mM was prepared as a positive control; and 10 μL of PBS was added as a negative control that represented the maximum enzyme activity. The inhibition rate of elastase was calculated according to the following formula: inhibition (%) = [1 − (ODsample − ODblank)/(ODneg − ODblank)] × 100%.

[7] = tested on: chymotrypsin; test: Proteolytic stability assay; type: in vitro ADME; details: peptide 1 mg/mL, chymotrypsin 1 mg/mL, 37°C, 0, 1, 2, 4, 8, 16 h (Figure S3: 0-8 h); remaining peptide by C18 RP-HPLC, 220 nm
Protocol: To evaluate the proteolytic stability of peptides against chymotrypsin, the peptides were dissolved to 1 mg/mL and incubated with chymotrypsin (1 mg/mL) at 37°C for different times (0, 1, 2, 4, 8, and 16 h). Afterward, the remaining peptides in the samples were analyzed by C18 reversed-phase high-performance liquid chromatography (HPLC) and detected at 220 nm. The mobile phase of HPLC was a mixture of acetonitrile and deionized water containing 0.1% trifluoroacetic acid.

[8] = tested on: mouse red blood cells; details: 2 mg/mL peptide, 5% (v/v) mouse red blood cells in PBS, 37°C, 1 h, OD 540 nm; repeated five times
Protocol: The blood compatibility of peptides was assessed using mouse red blood cells. The procedure involved obtaining red blood cells by centrifuging mouse blood at 2,000 rpm for 5 min, followed by washing them with PBS three times. The red blood cells were then diluted to a final concentration of 5% (v/v). Then, 2 mg/mL of peptides were added to 1 mL of the red blood cell suspension, and the mixture was incubated at 37°C for 1 h. After incubation, the suspension was centrifuged at 2000 rpm for 5 min, and the supernatant was measured at 540 nm using a microplate reader. The positive control consisted of 0.1% Triton X-100, while PBS served as a negative control. […] The hemolysis percentage was calculated using the following formula: hemolysis (%) = [(ODsample −ODnc)/(ODpc − ODnc)] × 100%.

[9] = tested on: COL-1 of the human fibroblasts HFF-1; test: Immunofluorescence staining of COL-1; type: cell-based; details: HFF-1, pretreatment 4 h (RGD-GHK 200 μg/mL), 400 µM H2O2 2 h, fresh medium 20 h
Protocol: (§1) HFF-1 cells (1.5 × 10^5 cells per well) or mouse embryonic fibroblasts (NIH3T3) were grown on sterile cell slides for 24 h till 80% confluence. A measure of 200 μg/mL of RGD-GHK and GHK solutions was prepared with serum-free DMEM, and the cells were treated with the solutions for 4 h. Then, the solutions were replaced with 400 µM H2O2 and incubated for another 2 h. Then, the fresh culture medium was added to the cells and incubated for another 20 h. Pretreatment without peptides was used as a negative control, while treatment with an anti-aging peptide, acetyl hexapeptide-8 (Wrinklend), was taken as a positive control. The slides were washed three times with PBS, followed by fixation in 500 µL of 4% paraformaldehyde for 15 min at room temperature. After washing with PBS another three times, the cells were permeabilized with 0.5% Triton X-100 for 15 min and washed with PBS repeatedly. The cells were blocked using 1% BSA for 1 h to eliminate non-specific binding. Samples were incubated at 4°C overnight with 100 µL of rabbit monoclonal antibody against type I collagen (COL1A1, 1:100 dilution, CST). […] Then, a fluorescent anti-quenching agent was applied to seal off the slips for 5 min, and the slips were observed using an upright fluorescence microscope.

[10] = tested on: COL-1 of mouse embryonic fibroblasts NIH3T3; test: Immunofluorescence staining of COL-1; type: cell-based; details: NIH3T3, pretreatment 4 h (RGD-GHK 200 μg/mL), 400 µM H2O2 2 h, fresh medium 20 h
Protocol: as §1

[11] = porcine skin, Franz-type diffusion cells, 24 h, 37 °C, HPLC

## NCCCC[C@H](NC(=O)[C@H](Cc1cnc[nH]1)NC(=O)CN)C(=O)O [GHK, tripeptide-1, reference compound] (H-Gly-His-Lys-OH)
[1]
  peptide detected in the receptor cell: ~0.5%
  peptide detected in the skin (skin retention): 2.7%

## OO [H2O2]
[2]
  concentration with apparent cytotoxic effect: 1,600 μM
[3]
  LDH leakage: over 37%
[4]
  ratio of early apoptosis: 28%
[5]
  concentration with obvious cytotoxicity: 800 µM

## CC(C)(C)C(=O)Oc1ccc(S(=O)(=O)Nc2ccccc2C(=O)NCC(=O)O)cc1 [Sivelestat, Sivelestat sodium salt hydrate, reference compound]
[6]; 250 μM of Sivelestat (positive control), read-out: elastase inhibition rate
  inhibition at 250 µM: ~65%

## RGDGHK [RGD-GHK]
[1]; [11]
  peptide detected in the receptor cell: approximately 5%
  peptide detected in the skin (skin retention): 5%
[6]
  elastase inhibition rate: approximately 25%
[7]
  proteolytic stability against chymotrypsin, compared with GHK: no significant difference in the proteolytic stability
[8]
  hemolysis (RBCs lysed): less than 1%

## RKQRRERGHK [sOtx2-GHK]
[6]
  elastase inhibition rate: ~20%

## acetyl hexapeptide-8 [Wrinklend]
[9]
  COL-1 expression (immunofluorescence): significantly suppressed COL-1 degradation
[10]
  COL-1 expression (immunofluorescence): significantly suppressed COL-1 degradation
